Laboratory results published in US8785156B2, “TLE3 as a marker for chemotherapy” (Clarient Diagnostic Services, Inc., priority 2007, dated 2014).

Tested on: ovarian cancer patients (UAB cohort)
Test: Kaplan-Meier recurrence curves, University of Alabama at Birmingham (UAB) ovarian cancer cohort, patients classified by TLE3 antibody staining
Type: in vivo, human
Details: all patients received paclitaxel, most also platinum chemotherapy (carboplatin or cisplatin)
Source text: All patients received paclitaxel. Most patients also received platinum chemotherapy (carboplatin or cisplatin). Recurrence data from TLE3-positive and TLE3-negative patients in this subset were used to generate the top and bottom curves, respectively. As shown in the Figure, antibody binding to the TLE3 marker correlated with prognosis in these treated patients (HR=0.64, p<0.049).
Kaplan-Meier recurrence curves that were generated using patients in the RP breast cancer cohort that received chemotherapy are consistent with this prediction model (see FIG. 6, HR=0.194, p=0.010). Kaplan-Meier recurrence curves that were generated using patients in the UAB ovarian cancer cohort that received chemotherapy are also consistent with this prediction model (see FIG. 18, HR=0.64, p=0.049).

## CC(=O)O[C@H]1C(=O)[C@@]2(C)[C@H]([C@H](OC(=O)c3ccccc3)[C@]3(O)C[C@H](OC(=O)[C@H](O)[C@@H](NC(=O)c4ccccc4)c4ccccc4)C(C)=C1C3(C)C)[C@]1(OC(C)=O)CO[C@@H]1C[C@@H]2O [paclitaxel]
  HR (recurrence, TLE3-positive vs TLE3-negative patients): 0.64
